The values below come from patent publication US11529344B2, “EZH2 inhibitor combination therapies” (Pfizer Inc., priority 2017, dated 2022).

For one data set, the system named is DMS114 SCLC xenograft. The text has this:
• (i) Compound Formulation: Compound 1 was formulated as a wet-milled nanosuspension (24 hr milling in 2.5% w/v polyvinyl pyrrolidone (PVP), 0.5% w/v Macrogol 15 Hydroxystearate (Kolliphor HS15) aqueous, with <1 μm particle-size distribution (PSD; ˜650 nm median diameter (d50)) for oral gavage administration. • (ii) Cell Implant, Compound Dosing and Tissue Collection: Immune deficient female mice with a severe combined immunodeficiency (SCID) mutation in a non-obese diabetic background (NOD SCID; 6 to 8 week old; NOD.CB17-Prkdcscid/NCrCrl from Charles River Laboratories) received a subcutaneous (SC) implant of 7.5×10^6 DMS114 cells (in 1:1 matrigel (Trevigen, Cultrex BME Path Clear®, Lot #: 30625F14), total volume 200 μl) into the right flank. Tumor volume and body weight were measured twice a week. On Day 20 post implant, 64 mice were randomized, based on tumor size at a geometric mean (geomean) of about 160 mm^3, into 6 groups corresponding to dose (Table 1). Compounds were administered at 10 ml/kg by oral gavage (Compound 1; BID ( 7/17 hours apart)) or intraperitoneal injection (cisplatin), respectively. The cisplatin dosing schedule was once a week for 3 weeks (Q7Dx3) and started 7 days after the randomization and treatment initiation with Compound 1.
On Day 55, study groups 1, 2, 3 and 4 were terminated (Table 1). Tumor (snap frozen) samples were collected at 4 hours post last dose for pharmacodynamic (PD) analysis. […] Tumor samples from groups 5 and 6 were collected 3 hours post last dose depending on available tumor sizes. All procedures performed on these animals were in accordance with regulations and established guidelines and were reviewed and approved by Pfizer's Institutional Animal Care and Use Committee. • (iii) Data Interpretation: For each experiment, calculations were performed and graphs created in Microsoft Excel and GraphPad Prism version 7.02 respectively. The tumor volume was calculated as 0.5×length×width^2. Tumor growth inhibition (TGI) was determined by the formula: % TGI=[1−(Vtx−Vt0/Vcx−Vc0)]×100, where Vc, Vt are the geometric means of control and treated groups. X=day X on study and 0=initial day of dosing. ELISA Assay: • (i) Histone Extraction: Histone extraction was performed using the EpiQuick Histone Extraction Kit (Epigentek OP0006). Frozen tumor samples were cut and homogenized using cold mortar and pestle on dry-ice. The homogenized mixture was transferred to a 1.5 mL tube in 1× Pre-Lysis Buffer (200 mg/mL) containing phenylmethylsulfonyl fluoride (PMSF). Samples were gently mixed, incubated on ice for 15 minutes, and spun down at 3,000 rpm for 5 minutes at 4° C. The tissue pellet was resuspended in 3 volumes (approximately 200 μL per 100 mg of tissue) of lysis buffer from the Histone Extraction Kit, incubated on ice for 30 minutes, and spun down at 12,000 rpm for 5 minutes at 4° C. Balance-DTT buffer was prepared by adding DTT Solution to balance buffer at a 1:500 ratio. The supernatant (containing acid soluble proteins) was transferred to a new 1.5 mL tube and 0.3 volumes of Balance-dithiothreitol (DTT) buffer from the Histone Extraction Kit were immediately added to each sample. The tumor lysate was briefly sonicated for 4 cycles (30 seconds on and 30 seconds off) at high intensity using the Bioruptor Plus (Diagenode #601020001). Extracts were aliquoted and stored at −20° C. (short term) or −80° C. (long term). Protein concentration was quantified using the Coomassie Plus (Bradford) Assay Kit (Thermo #23236). • (ii) H3K27Me3 and Me2 ELISA Assay: Histone extracts were diluted to a final concentration of 400 ng (or 800 ng) in 100 μL of coating buffer (phosphate buffered saline (PBS) containing 0.05% bovine serum albumin (BSA)).

The test system of data set [1] is H3K27Me3 in DMS114 tumors. The data set can be described thus: H3K27Me3 ELISA on histones of DMS114 xenograft tumors. It counts as in vivo, female NOD/SCID mice. The conditions noted are these: Mus musculus, DMS-114, 1320 h; 300 mg/kg BID, tumors harvested at Day 55; read-out: maximum inhibition of H3K27Me3 in tumor samples. The procedure: Extracts were aliquoted and stored at −20° C. (short term) or −80° C. (long term). […] Data was analyzed using GraphPad Prism version 7.02.
The in vivo activity of Compound 1 against EZH2 in the DMS114 SCLC xenograft model was determined by measurement of the relative amount of cellular H3K27Me3 and Me2 levels with ELISA using the tumor tissue samples harvested at Day 55 from the study described in Example 3 above.
(ELISA stands for enzyme-linked immunosorbent assay.)

“Also recorded” adds a separate entry of the source.

As a reminder, the inhibition is the drop in the measured response relative to a control, in per cent. On to `COc1cc(C)[nH]c(=O)c1CN1CCc2c(Cl)cc([C@H](OC)C3COC3)c(Cl)c2C1=O` [Compound 1, 5,8-dichloro-2-[(4-methoxy-6-methyl-2-oxo-1,2-dihydro-pyridin-3-yl)methyl]-7-[(R)-methoxy(oxetan-3-yl)methyl]-3,4-dihydroisoquinolin-1(2H)-one], for which the “TGI by Day 55” value in the data set on DMS114 SCLC xenograft (Compound 1 100 mg/kg BID PO, cisplatin 4 mg/kg IP Q7Dx3, alone or combined) is given as 50%. In addition, the “anti-tumor benefit vs vehicle control group” value with DMS114 SCLC xenograft (Compound 1 100 mg/kg BID and 300 mg/kg BID, Day 55) is on record as “significant anti-tumor benefit”. In addition, the “tolerability / body weight loss” value in the data set on DMS114 SCLC xenograft (Compound 1 PO BID, cisplatin 4 mg/kg IP Q7Dx3, combination with Compound 1 100 mg/kg BID) is listed as “well tolerated with limited bodyweight loss; also recorded: minimal toxicity”. Besides, the complete tumor regressions result with DMS114 SCLC xenograft (Compound 1 monotherapy arms, 30, 100 and 300 mg/kg BID) is “No complete tumor regressions”. Moreover, the “tumors regressed or progressed compared to the starting tumor burden” value in the data set on DMS114 SCLC xenograft (Day 55, Compound 1 100 mg/kg BID, cisplatin 4 mg/kg Q7Dx3) is listed as “all tumors had progressed”. In the data set with DMS114 SCLC xenograft (survival cut-off at 500 mm^3 tumor burden), the “survival benefit, Log-rank test (Mantel-Cox)” value was “did not reach the P<0.05 significance level”. This compound gave a median survival in the data set with DMS114 SCLC xenograft (survival cut-off at 500 mm^3 tumor burden, Compound 1 100 mg/kg BID, cisplatin 4 mg/kg Q7Dx3) of 39 days. Besides, the inhibition at 300 mg/kg in data set [1] turned out to be 96%.
